Like-named read-outs stand apart in the source and are kept apart here.
What was measured:
L. major [1] = test system: L. major; set-up: method as in ChEMBL; details: ref ChEMBL, cited from earlier work
L. major [2] = test: ChEMBL dataset of pIC50 values against L. major used for the RF model (Table S1); type: cell-based, Leishmania major; also: call rule not given here
[3] = ChemBL structures with pIC50 values used for Random forest model construction (Table S1)
[4] = Active/Inactive class assigned to ChemBL structures for Random forest model construction (Table S1)
[5] = ChemBL structures with pIC50 values used for Random forest model construction, L. major
[6] = Active/Inactive class assigned to the ChEMBL pIC50 value for Random forest model construction, ref ChEMBL

SMILES: CC1=C(C(=O)Nc2ccc(C(=O)/C=C/c3cccc([N+](=O)[O-])c3)cc2)C(c2ccc(C)cc2)NC(=S)N1 (stereo not drawn) [CHEMBL3786068]
- pIC50 Value (L. major [1]; [3]): 5.90
- Outcome (L. major [2]; [4]): Active

SMILES: COCC1=C(C(=O)OC)C(c2cccc([N+](=O)[O-])c2)NC(=O)N1 (stereo not drawn) [CHEMBL3786102]
- pIC50 Value (L. major [1]; [3]): 5.53
- Outcome (L. major [2]; [4]): Active

SMILES: CC(=O)C1=C(CNc2ccc(C(=O)/C=C/c3ccc(O)cc3)cc2)N(C)C(=O)NC1c1ccccc1 (stereo not drawn) [CHEMBL3786140]
- pIC50 Value (L. major [1]; [3]): 5.98
- Outcome (L. major [2]; [4]): Active

SMILES: CC(=O)C1=C(C)NC(=O)NC1c1cccc(C)c1 (stereo not drawn) [CHEMBL3786214]
- pIC50 Value (L. major [1]; [3]): 5.44
- Outcome (L. major [2]; [4]): Active

SMILES: CC(=O)C1=C(CNc2ccc(C(=O)/C=C/c3ccccc3)cc2)N(C)C(=O)NC1c1ccccc1 (stereo not drawn) [CHEMBL3786339]
- pIC50 Value (L. major [1]; [3]): 5.94
- Outcome (L. major [2]; [4]): Active

SMILES: CC(=O)C1=C(CNc2ccc(C(=O)/C=C/c3cccc([N+](=O)[O-])c3)cc2)N(C)C(=O)NC1c1ccccc1 (stereo not drawn) [CHEMBL3786374]
- pIC50 Value (L. major [1]; [3]): 5.88
- Outcome (L. major [2]; [4]): Active

SMILES: CC(=O)C1=C(CNc2ccc(C3=NNC(c4ccc(O)cc4)C3)cc2)N(C)C(=O)NC1c1ccccc1 (stereo not drawn) [CHEMBL3786468]
- pIC50 Value (L. major [1]; [3]): 6.02
- Outcome (L. major [2]; [4]): Active

SMILES: CC1=C(C(=O)Nc2ccc(C(=O)/C=C/c3ccc(O)cc3)cc2)C(c2ccc(C)cc2)NC(=S)N1 (stereo not drawn) [CHEMBL3786661]
- pIC50 Value (L. major [1]; [3]): 5.96
- Outcome (L. major [2]; [4]): Active

SMILES: CCOC(=O)C1=C(C)NC(=S)NC1c1ccc(C)cc1 (stereo not drawn) [CHEMBL3786732]
- pIC50 Value (L. major [1]; [3]): 5.66
- Outcome (L. major [2]; [4]): Active

SMILES: CC1=C(C(=O)Nc2ccc(C(=O)/C=C/c3cccc([N+](=O)[O-])c3)cc2)C(c2cccc(O)c2)NC(=S)N1 (stereo not drawn) [CHEMBL3786907]
- pIC50 Value (L. major [1]; [3]): 5.95
- Outcome (L. major [2]; [4]): Active

SMILES: CC(=O)C1=C(CNc2ccc(C(=O)/C=C/c3ccc(N(C)C)cc3)cc2)N(C)C(=O)NC1c1ccccc1 (stereo not drawn) [CHEMBL3787141]
- pIC50 Value (L. major [1]; [3]): 5.86
- Outcome (L. major [2]; [4]): Active

SMILES: CC1=C(C(=O)/C=C/c2ccc(O)cc2)C(c2ccccc2)NC(=O)N1C (stereo not drawn) [CHEMBL3787563]
- pIC50 Value (L. major [1]; [3]): 5.77
- Outcome (L. major [2]; [4]): Active

SMILES: CCCCCCCCCC(=O)OCCc1ccc(O)cc1 [CHEMBL3960630]
- pIC50 Value (L. major [1]; [5]): 4.19
- Outcome (L. major [2]; [6]): Inactive

SMILES: COc1ccccc1-c1nnc(-c2ccc(C(=O)N/N=C/c3cc(O)ccc3O)cc2)o1 [CHEMBL4059674]
- pIC50 Value (L. major [1]; [3]): 5.35
- Outcome (L. major [2]; [4]): Active

SMILES: COc1ccccc1-c1nnc(-c2ccc(C(=O)N/N=C/c3ccc(Cl)cc3)cc2)o1 [CHEMBL4060153]
- pIC50 Value (L. major [1]; [5]): 4.47
- Outcome (L. major [2]; [6]): Inactive

SMILES: COc1ccccc1-c1nnc(-c2ccc(C(=O)N/N=C/c3ccccc3F)cc2)o1 [CHEMBL4060698]
- pIC50 Value (L. major [1]; [5]): 5.29
- Outcome (L. major [2]; [6]): Active

SMILES: COc1ccccc1-c1nnc(-c2ccc(C(=O)N/N=C/c3cccc(O)c3O)cc2)o1 [CHEMBL4065149]
- pIC50 Value (L. major [1]; [3]): 5.85
- Outcome (L. major [2]; [4]): Active

SMILES: COc1ccccc1-c1nnc(-c2ccc(C(=O)N/N=C/c3ccc([N+](=O)[O-])cc3)cc2)o1 [CHEMBL4067171]
- pIC50 Value (L. major [1]; [5]): 4.25
- Outcome (L. major [2]; [6]): Inactive

SMILES: COc1ccccc1-c1nnc(-c2ccc(C(=O)N/N=C/c3ccc(Cl)cc3Cl)cc2)o1 [CHEMBL4068809]
- pIC50 Value (L. major [1]; [5]): 5.29
- Outcome (L. major [2]; [6]): Active

SMILES: COc1ccc(/C=N/NC(=O)c2ccc(-c3nnc(-c4ccccc4OC)o3)cc2)cc1O [CHEMBL4069376]
- pIC50 Value (L. major [1]; [5]): 5.19
- Outcome (L. major [2]; [6]): Active

SMILES: COc1ccccc1-c1nnc(-c2ccc(C(=O)N/N=C/c3ccccn3)cc2)o1 [CHEMBL4069827]
- pIC50 Value (L. major [1]; [5]): 5.04
- Outcome (L. major [2]; [6]): Active

SMILES: COc1ccccc1-c1nnc(-c2ccc(C(=O)N/N=C/c3cccc(F)c3)cc2)o1 [CHEMBL4072092]
- pIC50 Value (L. major [1]; [5]): 5.20
- Outcome (L. major [2]; [6]): Active

SMILES: COc1ccccc1-c1nnc(-c2ccc(C(=O)N/N=C/c3ccccc3C)cc2)o1 [CHEMBL4072556]
- pIC50 Value (L. major [1]; [5]): 4.47
- Outcome (L. major [2]; [6]): Inactive

SMILES: COc1ccccc1-c1nnc(-c2ccc(C(=O)N/N=C/c3ccccc3O)cc2)o1 [CHEMBL4074817]
- pIC50 Value (L. major [1]; [3]): 5.38
- Outcome (L. major [2]; [4]): Active

SMILES: O=[N+]([O-])c1cn2c(n1)OC[C@H](Oc1ccc(OC(F)(F)F)cc1)C2 [CHEMBL4078293]
- pIC50 Value (L. major [1]; [3]): 5.63
- Outcome (L. major [2]; [4]): Active

SMILES: COc1ccccc1-c1nnc(-c2ccc(C(=O)N/N=C/c3ccc(C)cc3)cc2)o1 [CHEMBL4079056]
- pIC50 Value (L. major [1]; [5]): 4.53
- Outcome (L. major [2]; [6]): Inactive

SMILES: COc1ccccc1-c1nnc(-c2ccc(C(=O)N/N=C/c3c(O)cc(O)cc3O)cc2)o1 [CHEMBL4080097]
- pIC50 Value (L. major [1]; [3]): 5.32
- Outcome (L. major [2]; [4]): Active

SMILES: COc1ccccc1-c1nnc(-c2ccc(C(=O)N/N=C/c3ccncc3)cc2)o1 [CHEMBL4080524]
- pIC50 Value (L. major [1]; [5]): 4.41
- Outcome (L. major [2]; [6]): Inactive

SMILES: COc1ccc(O)c(/C=N/NC(=O)c2ccc(-c3nnc(-c4ccccc4OC)o3)cc2)c1 [CHEMBL4082571]
- pIC50 Value (L. major [1]; [5]): 4.79
- Outcome (L. major [2]; [6]): Inactive

SMILES: O/N=C1/c2ccccc2OC(c2ccc(Cl)cc2)C1n1ccnc1 (stereo not drawn) [CHEMBL4083146]
- pIC50 Value (L. major [1]; [3]): 6.22
- Outcome (L. major [2]; [4]): Active

SMILES: COc1ccccc1-c1nnc(-c2ccc(C(=O)N/N=C/c3ccc(O)cc3)cc2)o1 [CHEMBL4085064]
- pIC50 Value (L. major [1]; [5]): 5.13
- Outcome (L. major [2]; [6]): Active

SMILES: COc1ccccc1-c1nnc(-c2ccc(C(=O)N/N=C/c3cccc([N+](=O)[O-])c3)cc2)o1 [CHEMBL4086911]
- pIC50 Value (L. major [1]; [5]): 4.13
- Outcome (L. major [2]; [6]): Inactive

SMILES: COc1ccccc1-c1nnc(-c2ccc(C(=O)N/N=C/c3ccc(O)cc3O)cc2)o1 [CHEMBL4087969]
- pIC50 Value (L. major [1]; [3]): 5.42
- Outcome (L. major [2]; [4]): Active

SMILES: COc1ccccc1-c1nnc(-c2ccc(C(=O)N/N=C/c3ccccc3Cl)cc2)o1 [CHEMBL4088386]
- pIC50 Value (L. major [1]; [5]): 4.54
- Outcome (L. major [2]; [6]): Inactive

SMILES: O/N=C1/c2ccccc2OC(c2cccc(Cl)c2)C1n1ccnc1 (stereo not drawn) [CHEMBL4088885]
- pIC50 Value (L. major [1]; [5]): 4.58
- Outcome (L. major [2]; [6]): Inactive

SMILES: COc1ccc(/C=N/NC(=O)c2ccc(-c3nnc(-c4ccccc4OC)o3)cc2)c(O)c1 [CHEMBL4090407]
- pIC50 Value (L. major [1]; [5]): 5.18
- Outcome (L. major [2]; [6]): Active

SMILES: COc1ccccc1-c1nnc(-c2ccc(C(=O)N/N=C/c3cccnc3)cc2)o1 [CHEMBL4090822]
- pIC50 Value (L. major [1]; [5]): 4.33
- Outcome (L. major [2]; [6]): Inactive

SMILES: COc1ccccc1-c1nnc(-c2ccc(C(=O)N/N=C/c3ccc(O)c(O)c3)cc2)o1 [CHEMBL4092817]
- pIC50 Value (L. major [1]; [3]): 6.02
- Outcome (L. major [2]; [4]): Active

SMILES: COc1ccccc1-c1nnc(-c2ccc(C(=O)N/N=C/c3cccc(Cl)c3)cc2)o1 [CHEMBL4096109]
- pIC50 Value (L. major [1]; [5]): 4.68
- Outcome (L. major [2]; [6]): Inactive

SMILES: COc1ccccc1-c1nnc(-c2ccc(C(=O)N/N=C/c3cccc(C)c3)cc2)o1 [CHEMBL4097073]
- pIC50 Value (L. major [1]; [5]): 4.40
- Outcome (L. major [2]; [6]): Inactive

SMILES: COc1ccccc1-c1nnc(-c2ccc(C(=O)N/N=C/c3cc(O)c(O)cc3O)cc2)o1 [CHEMBL4098126]
- pIC50 Value (L. major [1]; [3]): 6.01
- Outcome (L. major [2]; [4]): Active

SMILES: COc1cccc(/C=N/NC(=O)c2ccc(-c3nnc(-c4ccccc4OC)o3)cc2)c1 [CHEMBL4098544]
- pIC50 Value (L. major [1]; [5]): 4.10
- Outcome (L. major [2]; [6]): Inactive

SMILES: COc1ccccc1-c1nnc(-c2ccc(C(=O)N/N=C/c3ccc(F)cc3)cc2)o1 [CHEMBL4099059]
- pIC50 Value (L. major [1]; [5]): 4.85
- Outcome (L. major [2]; [6]): Inactive

SMILES: COc1ccc(/C=N/NC(=O)c2ccc(-c3nnc(-c4ccccc4OC)o3)cc2)cc1 [CHEMBL4099467]
- pIC50 Value (L. major [1]; [5]): 4.13
- Outcome (L. major [2]; [6]): Inactive

SMILES: COc1ccccc1-c1nnc(-c2ccc(C(=O)N/N=C/c3cccc(O)c3)cc2)o1 [CHEMBL4103014]
- pIC50 Value (L. major [1]; [5]): 4.74
- Outcome (L. major [2]; [6]): Inactive

SMILES: COc1ccccc1-c1nnc(-c2ccc(C(=O)N/N=C/c3ccccc3[N+](=O)[O-])cc2)o1 [CHEMBL4104790]
- pIC50 Value (L. major [1]; [5]): 4.19
- Outcome (L. major [2]; [6]): Inactive

SMILES: C#CCOc1ccc(/C=N/NC(N)=S)cc1OC [CHEMBL4159578]
- pIC50 Value (L. major [1]; [3]): 5.85
- Outcome (L. major [2]; [4]): Active

SMILES: COc1cc(/C=N\NC(N)=S)ccc1OCc1cn(CC(=O)c2ccc(Br)cc2)nn1 [CHEMBL4159895]
- pIC50 Value (L. major [1]; [5]): 5.29
- Outcome (L. major [2]; [6]): Active

SMILES: COc1cc(OCC=C(C)C)ccc1C(=O)/C=C/c1ccc([N+](=O)[O-])cc1 [CHEMBL4161584]
- pIC50 Value (L. major [1]; [3]): 5.48
- Outcome (L. major [2]; [4]): Active

SMILES: C#CCOc1ccc(C(=O)/C=C/c2ccc(F)cc2)c(OCC#C)c1 [CHEMBL4162285]
- pIC50 Value (L. major [1]; [5]): 5.00
- Outcome (L. major [2]; [6]): Active

SMILES: COc1cc(/C=N/NC(N)=S)ccc1OCc1cn(CC(=O)c2ccc(C)cc2)nn1 [CHEMBL4163267]
- pIC50 Value (L. major [1]; [3]): 5.30
- Outcome (L. major [2]; [4]): Active

Source: paper PMC8196580, “Identification of Kaurane-Type Diterpenes as Inhibitors of Leishmania Pteridine Reductase I” (Molecules, 2021)
